Laboratory results taken from publication PMC11476552, “Synthesis and Preliminary Studies for In Vitro Biological Activity of Two New Water-Soluble Bis(thio)carbohydrazones and Their Copper(II) and Zinc(II) Complexes” (International Journal of Molecular Sciences, 2024).

What was measured:
[1] = Proton dissociation constants by UV-visible spectrophotometry; format: physicochemical; settings: aqueous buffer solutions
Excerpt: The proton dissociation constants of Na2H4L^1·5.5 H2O (bis-TCH) were studied by registering the UV–visible spectra in aqueous solution between pH 3.98 and 10.00 (Figure 1A).
(§1) Between pH = 3.98 and 6.00, the solutions were colourless with absorption maxima at 237 and 320 nm. From pH = 6.49, the solution was pale green, and the colour became more intense until pH = 10.00; the colour change was accompanied by the appearance of bands at 253 and 393 nm, with a shoulder at 445 nm. […] This value is similar to that reported for the deprotonation of the phenolic moiety of sodium 5-sulfonate-salicylaldehyde thiosemicarbazones. The values of pKa1 and pKa2, associated with the proton dissociation of the sulfonic groups, are expected to have much lower values (below 3) and could not be determined from these experiments. Potentiometric titrations were performed in an attempt to determine the value of the pKa of the hydrazidic NH protons (pKa5 and pKa6) and, possibly, those of the protonated sulfonate groups. Effectively, potentiometric data allowed us to determine the pKa5 value, along with pKa3 and pKa4 (Table 2). The values of pKa3 and pKa4 obtained by potentiometry are consistent with those obtained by spectrophotometric titrations.
(§2) Similarly, the proton dissociation constants of bis-CH were studied spectrophotometrically in aqueous solution between pH = 3.98 and 10.00 (Figure 1B). […] The spectrophotometric data were processed by means of HypSpec2014 software, leading to pKa3 = 7.34(1) and pKa4 = 8.58(1), which were assigned to the deprotonation of the two phenolic OH groups (Table 2). As for bis-TCH, the single-site pKa value of the phenolic groups can be estimated as the average pKa (7.96). Additionally, to complete the analysis, we carried out potentiometric titrations of bis-CH starting from a very acidic pH. […] Importantly, no dissociation of the hydrazidic NH groups was observed, a behaviour consistent with that reported in the literature.
The UV–visible spectra were collected using a Thermo Scientific Evolution 260 Bio spectrophotometer equipped with a Peltier temperature controller. Aqueous buffer stock solutions (50 mM) were prepared as follows: acetate buffer solutions (pH = 3.98, 4.62, and 5.00) were prepared by mixing appropriate volumes of AcOH 50 mM and AcONa·3H2O 50 mM solutions. MES (pH = 5.51, 6.00, and 6.49), HEPES (pH = 7.00, 7.48, and 8.01) and CHES (pH = 8.62, 9.01, 9.51, and 10.00) buffer solutions were obtained by suspending appropriate amounts of solid MES/HEPES/CHES in water, adding aqueous NaOH 100 mM until the desired pH was reached. The pH was measured using a Crison Basic 20 pH meter connected with a Hamilton glass electrode. Calibration of the glass electrode was carried out daily. All solutions were prepared using double-distilled water. For all the solutions, the ionic strength was 0.1 M NaCl.
Samples used for the study of protonation equilibria of the ligands were prepared as follows. […] For each solution, the absorption spectrum was collected in the 220–600 nm range at 298.2 K. The spectral data collection was carried out immediately after the preparation of the samples and repeated after 3 and 10 min for all the samples at different pH values to check the stability of the ligand. […] The complex formation equilibria at pH 2.5 or 7.4 of bis-TCH and bis-CH with Cu(II) and Zn(II) ions were studied by direct spectrophotometric titrations of solutions of the ligands with the metal ions, and the samples were prepared as follows. Appropriate aliquots of the stock solutions of the ligands were diluted in a quartz cuvette of 1 cm path length using HEPES buffer (pH 7.4) or by adding HCl aqueous solution (pH 2.5) to obtain ca. 17 µM ligand solutions in a total volume of 2.6 mL. […]

[2] = Proton dissociation constants by pH potentiometry; format: physicochemical; settings: aqueous solution, T = 298.2 K, I = 0.1 M KCl
Excerpt: as §1, §2
Glass-electrode potentiometric titrations of bis-TCH and bis-CH were carried out in aqueous solution at T = 298.2 ± 0.1 K and I = 0.1 M (KCl) under a stream of N2, using 1.5 mL samples. The potentiometric titrations were carried out using an automatic Metrohm OMNIS titrator provided with a Metrohm semi-micro glass electrode. The system was controlled by a PC to monitor the attainment of the equilibrium through pH measurements vs. time and the addition of titrant aliquots. The Metrohm combined glass electrode was calibrated in terms of [H^+] (hereafter, pH = −log[H^+]) by titrating HCl solutions with KOH solutions previously standardized against potassium hydrogen phthalate. […] The protonation constants of Na2H4L^1·5.5 H2O and Na2H4L^2·5 H2O were determined by alkalimetric titration of 3 samples (3.0–4.5 mM). All samples were prepared by weight of the pure solids and dissolved in freshly prepared, N2-fluxed, double-distilled water. Potentiometric data treatment was carried out using Hyperquad2013 software. Distribution diagrams were obtained using Hyss2009 software.

[3] = UV-visible spectrophotometry, aqueous solution, T = 298.2 K, phenolic group, read-out: pKa3
[4] = UV-visible spectrophotometry, aqueous solution, T = 298.2 K, phenolic group, read-out: pKa4
[5] = average of spectrophotometric pKa3 and pKa4, read-out: single-site pKa value of the phenolic groups (average pKa)

| SMILES | pKa [1, 3] | pKa [1, 4] | pKa [1, 5] | pKa ([2]; read-out: pKa3) | pKa ([2]; read-out: pKa4) | pKa ([2]; second sulfonic group, read-out: pKa2) | pKa ([2]; hydrazidic NH, read-out: pKa5) |
| --- | --- | --- | --- | --- | --- | --- | --- |
| COc1cc(S(=O)(=O)[O-])cc(/C=N/NC(=O)N/N=C/c2cc(S(=O)(=O)[O-])cc(OC)c2O)c1O.[Na+].[Na+] [bis-CH, Bis-(sodium 3-methoxy-5-sulfonate-salicylaldehyde)-carbohydrazone] | 7.34 | 8.58 | 7.96 | 7.77 | 8.45 | 1.7 | – |
| COc1cc(S(=O)(=O)[O-])cc(/C=N/NC(=S)N/N=C/c2cc(S(=O)(=O)[O-])cc(OC)c2O)c1O.[Na+].[Na+] [bis-TCH, Bis-(sodium 3-methoxy-5-sulfonate-salicylaldehyde)-thiocarbohydrazone] | 6.78 | 8.77 | 7.78 | 7.08 | 8.54 | – | 11.3 |
